# Assay results: patent US10767212B2, “Method of screening compounds” (Cornell University, priority 2016, dated 2020)
# “And” between values parts separate entries of the source, which are not always exact repeats. Equal entries are not always repeated. Where two headings read alike, the source gives them in different places.
# T1: GAC (Mus musculus, UniProt D3Z7P3)
# T1 sequence (D3Z7P3 73-603 isoform D3Z7P3-2): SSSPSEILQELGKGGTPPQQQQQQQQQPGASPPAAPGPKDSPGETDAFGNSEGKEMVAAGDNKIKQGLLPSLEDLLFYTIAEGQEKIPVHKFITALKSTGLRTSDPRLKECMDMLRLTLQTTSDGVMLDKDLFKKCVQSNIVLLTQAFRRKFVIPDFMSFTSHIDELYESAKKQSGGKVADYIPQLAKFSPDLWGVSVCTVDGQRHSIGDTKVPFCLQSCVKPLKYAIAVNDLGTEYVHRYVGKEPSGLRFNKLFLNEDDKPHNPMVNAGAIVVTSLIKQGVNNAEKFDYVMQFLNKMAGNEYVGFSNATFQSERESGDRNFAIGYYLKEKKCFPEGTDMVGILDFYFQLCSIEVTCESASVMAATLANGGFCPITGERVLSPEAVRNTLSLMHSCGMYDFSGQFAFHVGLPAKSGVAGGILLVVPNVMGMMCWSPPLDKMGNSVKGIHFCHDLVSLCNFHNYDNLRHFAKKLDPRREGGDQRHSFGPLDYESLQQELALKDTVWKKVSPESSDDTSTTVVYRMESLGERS
# T2: GACF327W (Mus musculus, UniProt D3Z7P3, F327W)
# T2 sequence (D3Z7P3 73-603 isoform D3Z7P3-2 F327W): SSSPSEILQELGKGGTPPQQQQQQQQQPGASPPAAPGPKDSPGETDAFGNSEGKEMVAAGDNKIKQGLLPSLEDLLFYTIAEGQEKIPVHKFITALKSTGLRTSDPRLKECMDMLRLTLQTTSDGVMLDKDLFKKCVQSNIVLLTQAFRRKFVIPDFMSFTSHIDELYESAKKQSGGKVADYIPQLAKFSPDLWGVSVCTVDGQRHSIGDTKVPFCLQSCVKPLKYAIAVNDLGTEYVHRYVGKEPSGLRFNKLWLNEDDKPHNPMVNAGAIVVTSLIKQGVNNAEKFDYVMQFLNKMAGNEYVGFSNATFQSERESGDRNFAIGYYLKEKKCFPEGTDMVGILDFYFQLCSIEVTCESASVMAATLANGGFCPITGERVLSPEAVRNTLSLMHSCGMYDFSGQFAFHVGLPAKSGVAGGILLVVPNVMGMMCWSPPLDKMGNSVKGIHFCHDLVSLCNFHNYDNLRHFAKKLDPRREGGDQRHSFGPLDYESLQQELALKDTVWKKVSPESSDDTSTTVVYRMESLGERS
# T3: GAC tetramers (Mus musculus, UniProt D3Z7P3)
# T3 sequence (D3Z7P3 73-603 isoform D3Z7P3-2): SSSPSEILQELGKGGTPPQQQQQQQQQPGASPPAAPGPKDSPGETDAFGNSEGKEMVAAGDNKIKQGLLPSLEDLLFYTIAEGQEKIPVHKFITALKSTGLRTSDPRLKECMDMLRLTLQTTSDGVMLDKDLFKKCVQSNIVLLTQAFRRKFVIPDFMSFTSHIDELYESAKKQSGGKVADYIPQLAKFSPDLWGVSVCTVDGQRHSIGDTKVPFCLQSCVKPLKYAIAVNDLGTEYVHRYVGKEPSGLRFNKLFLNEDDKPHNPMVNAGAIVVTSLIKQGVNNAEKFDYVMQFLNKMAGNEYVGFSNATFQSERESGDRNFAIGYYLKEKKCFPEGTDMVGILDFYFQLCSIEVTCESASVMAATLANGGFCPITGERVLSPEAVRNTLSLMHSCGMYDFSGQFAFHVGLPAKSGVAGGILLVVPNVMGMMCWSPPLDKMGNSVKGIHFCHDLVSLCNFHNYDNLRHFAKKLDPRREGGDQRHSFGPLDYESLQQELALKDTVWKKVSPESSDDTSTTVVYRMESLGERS
# T4: WT GAC (Mus musculus, UniProt D3Z7P3)
# T4 sequence (D3Z7P3 73-603 isoform D3Z7P3-2): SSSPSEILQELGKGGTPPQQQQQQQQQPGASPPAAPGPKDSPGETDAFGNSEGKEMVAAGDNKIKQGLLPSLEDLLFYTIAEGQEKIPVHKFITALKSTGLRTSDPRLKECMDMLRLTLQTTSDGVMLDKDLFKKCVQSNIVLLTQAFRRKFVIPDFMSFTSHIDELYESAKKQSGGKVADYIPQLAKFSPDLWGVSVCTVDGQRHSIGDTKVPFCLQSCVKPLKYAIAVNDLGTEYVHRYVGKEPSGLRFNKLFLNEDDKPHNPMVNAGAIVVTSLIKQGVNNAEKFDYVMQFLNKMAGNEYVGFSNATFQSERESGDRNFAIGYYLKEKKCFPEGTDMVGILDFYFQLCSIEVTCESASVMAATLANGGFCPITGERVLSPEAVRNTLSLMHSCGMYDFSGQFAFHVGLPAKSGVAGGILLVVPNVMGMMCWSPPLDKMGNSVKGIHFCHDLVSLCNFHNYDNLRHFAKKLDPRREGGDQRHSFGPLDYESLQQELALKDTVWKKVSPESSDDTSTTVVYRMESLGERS
# How the values were obtained:
# [1] = target: T1, GAC; test: biochemical
# [2] = target: T2, GACF327W; details: for enhancement of the tryptophan fluorescence of the F327W mutant: addition of anionic activator, 50 mM anion, 400 nM F327W in FIG. 10A
# [3] = target: T3, GAC tetramers; details: for FRET signal (GAC tetramer formation): 25 nM 488-labeled GAC, 75 nM QSY9-GAC; for reversibility of bound GAC tetramers: after addition of excess unlabeled GAC subunits
# [4] = target: T2, GACF327W; test: biochemical; details: KD from fluorescence quenching of the GACF327W mutant, 100 nM GACF327W; fit to a bimolecular interaction equation
# [5] = target: T1, GAC; test: Real-time NADH fluorescence assay of GAC activity; format: biochemical; set-up: residues 73-603) was cloned into a pET28a vector; His tag with thrombin cleavage site (N); made in house; details: 1 μM inhibitor, 10 nM GAC, 20 mM glutamine, 100 mM HPO4^2−
# Text: FIG. 4A is a spectra of real-time NADH assays of GAC activity, in which the increased NADH fluorescence (in arbitrary units (AU)) results from the coupled reaction where GAC catalyzes glutamate production, and GDH converts glutamate to α-ketoglutarate and NAD to NADH. […] FIG. 4B is a graph of relative glutaminase activity. […] Error bars represent the standard deviation of three independent experiments.
# [6] = target: T1, GAC; details: for Kd: read-out: KD values from glutaminase activity with increasing concentrations of anion, 50 nM WT GAC, allosteric activation
# [7] = target: T4, WT GAC; details: 5 mg/ml WT GAC; 50 mM anion in the running buffer
# [8] = Catalytic properties of GAC proteins (phosphate-stimulated glutaminase activity); format: biochemical, mouse
Molecule,reversibility of bound GAC tetramers [3],Kd [6],enhancement of the tryptophan fluorescence of the F327W mutant [2],FRET signal (GAC tetramer formation) ([3]; 100 mM anion),Km [8],Vmax [8],also measured
O=C(Cc1cccc(OC(F)(F)F)c1)Nc1ccc(CCCCc2nnc(NC(=O)Cc3ccccn3)s2)nn1 [CB-839],resistant to dissociation,–,–,–,–,–,"IC50 [1]: 0.023 ± 0.001 µM; change in tryptophan fluorescence of GACF327W upon addition of inhibitor ([2]; 1 μM BPTES in FIG. 6B, increasing concentrations in FIGS. 8A-B): dose-dependent quenching; binding kinetics (comparison) ([2]; real-time F327W fluorescence): slower binding kinetics than BPTES; FRET signal (GAC tetramer formation) ([3]; 500 nM inhibitor): rapidly increases the FRET signal; Kd [4]: 0.034 µM and 0.03 µM; inhibition of phosphate-stimulated GAC activity (initial rate analysis) [5]: stronger inhibition"
O=S(=O)(O)O [sulfate],readily reversible,36400 ± 3000 µM,15%,rapidly increases the FRET signal,–,–,effectiveness in activating GAC relative to phosphate ([6]; relative to phosphate (HPO4^2−)): −50%
O=P(O)(O)O [inorganic phosphate],readily reversible,20600 ± 400 µM,25%,rapidly increases the FRET signal,–,–,oligomer size from molecular weight distribution [7]: greater than 32 mers
"GACF327W: mutant mouse GLS protein (GAC) with phenylalanine to tryptophan substitution at position 327 (protein, Mouse GAC with F327W substitution) MMRLRGSAMLRELLLRPPAAVGAVLRRAQPLGTLCRRPRGGSRPTAGLVAAARLHPWWGGGGRAKGPGAGGLSSSPSEILQELGKGGTPPQQQQQQQQQPGASPPAAPGPKDSPGETDAFGNSEGKEMVAAGDNKIKQGLLPSLEDLLFYTIAEGQEKIPVHKFITALKSTGLRTSDPRLKECMDMLRLTLQTTSDGVMLDKDLFKKCVQSNIVLLTQAFRRKFVIPDFMSFTSHIDELYESAKKQSGGKVADYIPQLAKFSPDLWGVSVCTVDGQRHSIGDTKVPFCLQSCVKPLKYAIAVNDLGTEYVHRYVGKEPSGLRFNKLWLNEDDKPHNPMVNAGAIVVTSLIKQGVNNAEKFDYVMQFLNKMAGNEYVGFSNATFQSERESGDRNFAIGYYLKEKKCFPEGTDMVGILDFYFQLCSIEVTCESASVMAATLANGGFCPITGERVLSPEAVRNTLSLMHSCGMYDFSGQFAFHVGLPAKSGVAGGILLVVPNVMGMMCWSPPLDKMGNSVKGIHFCHDLVSLCNFHNYDNLRHFAKKLDPRREGGDQRHSFGPLDYESLQQELALKDTVWKKVSPESSDDTSTTVVYRMESLGERS",–,–,–,–,15 ± 1.7 mM,435 ± 19 µmol/min,–
"WT GAC: recombinant wild-type mouse glutaminase C, NP_001106854.1, residues 73-603 (protein, left off: small tags and cut ends) SSSPSEILQELGKGGTPPQQQQQQQQQPGASPPAAPGPKDSPGETDAFGNSEGKEMVAAGDNKIKQGLLPSLEDLLFYTIAEGQEKIPVHKFITALKSTGLRTSDPRLKECMDMLRLTLQTTSDGVMLDKDLFKKCVQSNIVLLTQAFRRKFVIPDFMSFTSHIDELYESAKKQSGGKVADYIPQLAKFSPDLWGVSVCTVDGQRHSIGDTKVPFCLQSCVKPLKYAIAVNDLGTEYVHRYVGKEPSGLRFNKLFLNEDDKPHNPMVNAGAIVVTSLIKQGVNNAEKFDYVMQFLNKMAGNEYVGFSNATFQSERESGDRNFAIGYYLKEKKCFPEGTDMVGILDFYFQLCSIEVTCESASVMAATLANGGFCPITGERVLSPEAVRNTLSLMHSCGMYDFSGQFAFHVGLPAKSGVAGGILLVVPNVMGMMCWSPPLDKMGNSVKGIHFCHDLVSLCNFHNYDNLRHFAKKLDPRREGGDQRHSFGPLDYESLQQELALKDTVWKKVSPESSDDTSTTVVYRMESLGERS",–,–,–,–,16.4 ± 0.4 mM,453 ± 8 µmol/min,–
